Entries after “also recorded” stand apart in the source; their conditions may differ.
Legend:
[1] = tested on: platelets; assay: Second round screening: % activated platelets (CD62P/CD61 flow cytometry) and plasma TGF-β1; assay type: cell-based; details: inhibitor in Streck B formulation at 3 to 5 dosages; room temperature up to 7 days; data not shown
Protocol: Preservative formulations were made by adding platelet activation inhibitors to the Streck B formulation at the desired concentrations. Venous blood specimens from 2 donors were then drawn into blood collection tubes (BCTs) prefilled with these formulations. As references, blood specimens were also drawn into EDTA tubes, ACD-A tubes, tubes filed with Streck B formulation, and tubes containing Streck B formulation spiked with and 2 mM tetracaine. Blood specimens were stored at room temperature for up to 7 days.
The percentages of activated platelets (CD62P positive) among total platelets (CD61 positive) in drawn whole blood were measured by flow cytometry. The percentage of activated platelets was tested with Day 0 and Day 3 blood specimens. The plasma levels of TGF-β1 in Day 0, Day 1, Day 3, and Day 7 old blood specimens were measured with immunoassay.

[2] = tested on: platelets; assay: First round screening of platelet activation inhibitors: plasma TGF-β1 by Ella immunoassay; assay type: cell-based; details: inhibitor added to Streck B formulation; venous blood at room temperature; data not shown
Protocol: Blood specimens drawn from 3 donors were stored at room temperature for […]. Activated platelet secret granule contents, such as growth factors, chemokines, and cytokines, into plasma. Elevated plasma concentration of TGF-β1 indicates platelet activation and granule release. Plasma TGF-β1 level was measured with immunoassay using Ella Automated Immunoassay System. Freshly drawn blood (day 0), blood stored for 1 day (Day 1), 3 days (Day 3), and 7 days (Day 7) were tested.
The tested formulations are compared with EDTA and ACD-A for their ability to prevent granule release from platelets. Streck B formulation spiked with 2 mM tetracaine was also used as a reference.

[3] = tested on: white blood cells, red blood cells, and platelets; assay: Third round screening: plasma MPO, ferritin and RANTES as blood cell damage indicators; assay type: cell-based; details: inhibitor in Streck B formulation; 7-day room temperature storage; data not shown
Protocol: The effects of these seven inhibitors on white blood cells, red blood cells, and platelets were evaluated during the third round of screening. […] Therefore, plasma levels of myeloperoxidase (MPO), ferritin, and RANTES were measured with immunoassay as damage indicators of white blood cells, red blood cells, and platelets, respectively. Preservative formulations were made by adding platelet activation inhibitors to Streck B formulation at concentrations determined through the second round of screening. Venous blood was collected from 2 donors for all preservative formulations. EDTA, ACD-A, Streck B formulation and Streck B formulation spiked with 2 mM Tetracaine were used as references. Draw whole blood samples were stored at room temperature for up to 7 days.

[4] = tested on: cfRNA; assay: cfRNA stability: Qubit miRNA Assay, total plasma cfRNA; details: 7 days ambient storage
Excerpt: (§1) Total cell-free nucleic acids were isolated from day 0 or day 7 blood samples using Qiagen's QIAamp Circulating Nucleic Acid Kit.
Qubit miRNA Assay was used to quantify the concentration of total plasma cfRNA. If RNA-containing cells, such as reticulocytes and white blood cells, were lysed during storage, then large amounts of RNA fragments would be released into plasma, masking the very low abundant circulating cfRNA while resulting in elevated cfRNA.

[5] = tested on: plasma proteins; assay: Venous blood, Luminex xMAP Multiplex Immunoassay Panel; assay type: cell-based; details: room temperature storage, 3 to 5 days
Protocol: After double-spin process, isolated plasma fractions were tested with Luminex xMAP Multiplex Immunoassay Panel.

[6] = tested on: red blood cells; assay: TAP II capillary blood study: hemolysis (A414); assay type: cell-based; details: venous blood and TAP II capillary blood, up to 3 days room temperature
Excerpt: Blood samples were stored at room temperature for up to 3 days.

[7] = tested on: cfDNA; assay: cfDNA stability: Qubit HS DNA Assay, total plasma cfDNA
Excerpt: (§2) The drawn blood samples were stored at room temperature for up to 7 days. Total cell-free nucleic acids were isolated from day 0 or day 7 blood samples using Qiagen's QIAamp Circulating Nucleic Acid Kit.
(§3) The resultant plasma cfDNA was first studied with Qubit HS DNA Assay (FIG. 5A), which quantifies the concentration of total plasma cfDNA. Without proper stabilization, white blood cells in drawn blood will lyse during storage and release large amounts of genomic DNA fragments into the plasma, leading to elevated total plasma cfDNA. Compared to cfDNA originating from white blood cells, tumor-derived cfDNA is preset at a very low concentration. Tumor-derived cfDNA should not be detectable in healthy donors.

[8] = tested on: β-actin (ACTB); assay: cfDNA stability: plasma β-actin (ACTB) by digital droplet PCR; details: day 7 blood, ambient storage
Excerpt: as §2, §3

[9] = tested on: platelets; assay: Tasso+ capillary blood study: plasma MPO and RANTES; assay type: cell-based; details: venous and Tasso+ capillary blood, up to 3 days room temperature
Protocol: Tasso+ is a single-use device that collects up to 0.5 mL of capillary blood from a donor's upper arm. Tasso+ is compatible with BD Microtainer® Blood Collection Tubes.
Capillary blood samples were collected from 3 donors. […] Blood samples were stored at room temperature for up to 3 days. Three functionality assays were conducted, including measuring hemolysis (FIG. 8A) and testing the plasma level of MPO (FIG. 8B) and RANTES (FIG. 8C).

[10] = tested on: TGF-β1; assay: Spray-coated microcollection tubes: plasma TGF-β1 (Ella); assay type: cell-based; details: 3-day room temperature storage, spray-coated microcollection tubes (FIG. 10)
Protocol: (§4) Blood was collected from healthy donors, each collected into 1×5 mL EDTA vacutainer tubes and virgin (no anticoagulant). Next, venous blood was aliquoted as quickly as possible into the spray-coated microtainers. The EDTA blood was aliquoted into virgin Greiner microtainers as negative controls. The blood with no anticoagulant was aliquoted into microcollection tubes spray coated with one of three formulations noted in Table 2 below, with two tubes per formulation. The sprayed microtainers were then mixed 15-20 times with the blood sample.
(§5) Half of the samples were analyzed at draw time and the remaining half were stored at room temperature for 3 days before analysis. Plasma protein concentration of TGF-β1 was analyzed with Ella (FIG. 10). Plasma β-Actin level was determined by ddPCR (FIG. 11).

[11] = tested on: cfDNA; assay: cfDNA stability: Agilent cfDNA ScreenTape Assay
Excerpt: as §2
Plasma cfDNA was further analyzed with Agilent cfDNA ScreenTape Assay on Agilent TapeStation (FIGS. 5C & 5D). […] Thus, the percentage of cfDNA between 150-300 bp among total cfDNA (% cfDNA) was used to indicate genomic DNA contamination (FIG. 5D).

[12] = tested on: β-Actin DNA (ACTB); assay: Spray-coated microcollection tubes: plasma β-Actin by ddPCR
Protocol: as §4, §5

[13] = tested on: RBC; assay: In vitro hemolysis, absorbance at 414 nm (Nanodrop); assay type: cell-based; details: venous blood, room temperature up to 5 days, N=15
Excerpt: Hemolysis was quantitatively measured by following the absorbance at 414 nm with Nanodrop. An increased A414 indicates releasing of hemoglobin from broken RBC, which is a key event of hemolysis.

[14] = tested on: cfRNA; assay: cfRNA stability: Agilent RNA Pico Kit, Bioanalyzer; details: day 7 versus freshly collected blood
Excerpt: as §1
The plasma cfRNA was first analyzed with Agilent's RNA Pico Kit on the Agilent Bioanalyzer system (FIG. 6A).

[15] = tested on: platelets; details: 2 mM mexiletine or 1 mM verapamil in Streck B formulation; tubes stored 2-50° C. up to 8 weeks; data not shown
Excerpt: Freshly made tubes, 2 weeks old tubes, 4 weeks old tubes, and 8 weeks old tubes were then used to collect venous blood from 2 self-proclaimed healthy donors. Blood specimens were stored at room temperature for up to 3 days. The percentage of platelet activation and plasma level of TGF-31 to test the ability of the aged formulation to prevent platelets activation at collection time and during room temperature storage.

Q: With `COc1ccc(CCN(C)CCCC(C#N)(c2ccc(OC)c(OC)c2)C(C)C)cc1OC` (stereo not drawn) [verapamil] as the compound, how does the “ability to reduce platelet activation in second round screening” value (shortened to “ability to reduce platelet activation”) [1] read?
A: The value was “behaved at least comparable to each other”.

Q: And the “outcome of first round screening (maintaining plasma TGF-β1 comparable to Streck B formulation with tetracaine)” value (“outcome of first round screening” for short) [2]?
A: The value was “graduated from the first round of the screening”.

Q: And the “adverse effects on white blood cells, red blood cells and platelet” value (shortened to “adverse effects on white blood cells”) [3]?
A: Its value is “little adverse effects”.

Q: With `Cc1cccc(C)c1NC(=O)C1CCCCN1C` (stereo not drawn) [mepivacaine] as the compound, how does the “ability to reduce platelet activation” value [1] read?
A: Its value is “behaved at least comparable to each other”.

Q: What about the “outcome of first round screening” value [2] of the same compound?
A: The value was “graduated from the first round of the screening”.

Q: And the “adverse effects on white blood cells” value [3]?
A: Its value is “little adverse effects”.

Q: Which results are given for `CCCCN1CCCCC1C(=O)Nc1c(C)cccc1C` (stereo not drawn) [bupivacaine]?
A: ability to reduce platelet activation in second round screening [1]: behaved at least comparable to each other; outcome of first round screening (maintaining plasma TGF-β1 comparable to Streck B formulation with tetracaine) [2]: graduated from the first round of the screening; adverse effects on white blood cells, red blood cells and platelet [3]: little adverse effects

Q: Which “ability to reduce platelet activation” value [1] does the source give for `CCN(CC)CC(=O)Nc1c(C)cccc1C` [lidocaine] here?
A: Its value is “behaved at least comparable to each other”.

Q: And the “adverse effects on white blood cells” value [3]?
A: The value was “little adverse effects”.

Q: For `O=C(O)CN(CCN(CC(=O)O)CC(=O)O)CC(=O)O` [EDTA, ethylene diamine tetra acetic acid], which “increase of total cfRNA after storage” value [4] is on record?
A: The value was about 5 fold.

Q: What about the “plasma concentrations of representative proteins and cytokines (FIG. 2: MPO, TGF-β1, CCL5/RANTES, MMP-9, VEGF, Granzyme B, TNFα, IL-8)” value [5] of the same compound?
A: The value was “elevated levels; also recorded: marked increase”.

Q: And the hemolysis [6]?
A: The hemolysis was “induces hemolysis”.

Q: What about the “total plasma cfDNA concentration” value ([7]; day 0 blood) of the same compound?
A: The value was “low concentrations of cfDNA”.

Q: What about the “total plasma cfDNA concentration” value ([7]; day 7 blood, room temperature) of the same compound?
A: Its value is “elevated total cfDNA”.

Q: What about the “plasma level of β-actin (ACTB) DNA” value [8] of the same compound?
A: Its value is “high amount of ACTB”.

Q: And the “granule release from activated platelets (plasma MPO and RANTES)” value [9]?
A: The value was “increased”.

Q: And the “change of plasma TGF-β1 level after storage” value [10]?
A: Its value is “drastically increased”.

Q: And the “% cfDNA (cfDNA between 150-300 bp among total cfDNA)” value ([11]; Day 0 blood)?
A: The value was 75%.

Q: What about the “plasma cfDNA electropherogram plots” value ([11]; Day 7 blood) of the same compound?
A: Its value is “prominent peak of apoptotic-ladder DNA”.

Q: And the “% cfDNA (cfDNA between 150-300 bp among total cfDNA)” value ([11]; Day 7 blood, room temperature)?
A: The value was 30%.

Q: And the “level of β-Actin in 3-day old plasma versus draw time plasma” value ([12]; 3 days room temperature (FIG. 11))?
A: Its value is “more than 20 fold”.

Q: What about the “plasma β-Actin DNA level after storage (genomic DNA contamination)” value ([12]; 3 days room temperature, spray-coated tubes (FIG. 11)) of the same compound?
A: Its value is “led to genomic DNA (β-Actin) contamination”.

Q: And the “in vitro hemolysis (A414)” value [13]?
A: The value was “in vitro hemolysis since day 3; also recorded: significant hemolysis”.

Q: What about the “plasma cfRNA electropherogram (concentration and population)” value [14] of the same compound?
A: Its value is “greatly changed”.

Q: What does the source list for `COc1ccc([C@@H]2Sc3ccccc3N(CCN(C)C)C(=O)[C@@H]2OC(C)=O)cc1` [diltiazem]?
A: ability to reduce platelet activation in second round screening [1]: behaved at least comparable to each other; outcome of first round screening (maintaining plasma TGF-β1 comparable to Streck B formulation with tetracaine) [2]: graduated from the first round of the screening; adverse effects on white blood cells, red blood cells and platelet [3]: little adverse effects

Q: Which “ability to reduce platelet activation” value [1] does the source give for `C=C[C@H]1C[N@@]2CC[C@H]1C[C@@H]2[C@@H](O)c1ccnc2ccc(OC)cc12` [quinidine] here?
A: The value was “behaved at least comparable to each other”.

Q: What about the “outcome of first round screening” value [2] of the same compound?
A: The value was “graduated from the first round of the screening”.

Q: What about the “adverse effects on white blood cells” value [3] of the same compound?
A: The value was “little adverse effects”.

Q: For `Cc1cccc(C)c1OCC(C)N` (stereo not drawn) [mexiletine], which “ability to reduce platelet activation” value [1] is on record?
A: The value was “behaved at least comparable to each other”.

Q: And the “functional stability of aged formulations compared to other tested ion inhibitors” value [15]?
A: The value was “better functional stability”.

Q: What about the “outcome of first round screening” value [2] of the same compound?
A: The value was “graduated from the first round of the screening”.

Q: What about the “adverse effects on white blood cells” value [3] of the same compound?
A: Its value is “little adverse effects”.

Reference: patent US20260250641A1, “COMPOSITIONS AND USES THEREOF FOR STABILIZATION OF BLOOD SAMPLE COMPONENTS” (STRECK LLC, priority 2023, published 2026)
